# Results published in patent publication US8691804B2 (Evotec AG, priority 2008, dated 2014).
# Target: T1, human H3 receptors (Homo sapiens, UniProt Q9Y5N1)
# T1 construct: host or cells: CHO-K1
# Assay: cAMP quantification assay for human H3 receptor testing
# Type: cell-based
# Details: CHO-K1 cells expressing human H3 receptors; inhibition of agonist-induced decrease of cAMP; 100 nM histamine, 10 μM forskolin; read-out: Potency range (IC50 values)
# Procedure, shortened: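 CHO-K1 cells expressing human H3 (10,000/well) were preincubated 30 min at 37 °C with compound in PBS containing 1 mM IBMX and 0.03% BSA. They were then challenged 30 min with agonist solution (100 nM histamine plus 10 μM forskolin). cAMP was quantified by enzyme-complementation luminescence, with 8 concentrations in triplicate at 1% DMSO.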
# T1 sequence (Q9Y5N1 whole entry): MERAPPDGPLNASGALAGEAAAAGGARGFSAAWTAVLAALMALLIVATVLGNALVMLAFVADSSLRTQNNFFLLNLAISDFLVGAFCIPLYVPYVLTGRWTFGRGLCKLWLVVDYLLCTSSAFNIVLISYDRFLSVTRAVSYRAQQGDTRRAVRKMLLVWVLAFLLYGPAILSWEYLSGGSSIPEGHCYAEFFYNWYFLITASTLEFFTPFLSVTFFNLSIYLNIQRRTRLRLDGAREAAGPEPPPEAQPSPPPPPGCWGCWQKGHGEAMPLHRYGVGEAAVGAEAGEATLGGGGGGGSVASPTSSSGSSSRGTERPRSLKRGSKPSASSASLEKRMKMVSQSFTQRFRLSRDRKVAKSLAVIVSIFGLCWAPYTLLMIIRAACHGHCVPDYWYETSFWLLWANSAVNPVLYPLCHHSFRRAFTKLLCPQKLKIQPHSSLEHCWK
row,Compound,IC50 [nM]
1,"O=C(N1CCCN(C2CCC2)CC1)N1CC(Oc2cccc(C(F)(F)F)c2)C1 [Example 28, 1-cyclobutyl-4-({3-[3-(trifluoromethyl)phenoxy]azetidin-1-yl}carbonyl)-1,4-diazepane]",< 100
2,"CN1CCc2cc(OC3CN(C(=O)N4CCCN(C5CCC5)CC4)C3)ccc2C1=O [Example 117, 6-({1-[(4-cyclobutyl-1,4-diazepan-1-yl)carbonyl]azetidin-3-yl}oxy)-2-methyl-3,4-dihydroisoquinolin-1(2H)-one]",< 100
3,"Cc1nn(C)c(C)c1-c1ccc(OC2CN(C(=O)N3CCCN(C4CCC4)CC3)C2)cc1 [Example 150, 1-cyclobutyl-4-({3-[4-(1,3,5-trimethyl-1H-pyrazol-4-yl)phenoxy]azetidin-1-yl}carbonyl)-1,4-diazepane]",< 100
4,"CCN1CCCN(C(=O)N2CC(Oc3ccc(C(C)(C)O)nc3)C2)CC1 [Example 157, 2-[5-({1-[(4-ethyl-1,4-diazepan-1-yl)carbonyl]azetidin-3-yl}oxy)pyridin-2-yl]propan-2-ol]",< 100
5,"O=C(N1CCCN(C2CCC2)CC1)N1CC(Oc2ccncc2)C1 [Example 81, 1-cyclobutyl-4-{[3-(pyridin-4-yloxy)azetidin-1-yl]carbonyl}-1,4-diazepane]",< 100
6,"COc1cncc(OC2CN(C(=O)N3CCCN(C4CCC4)CC3)C2)c1 [Example 82, 1-cyclobutyl-4-({3-[(5-methoxypyridin-3-yl)oxy]azetidin-1-yl}carbonyl)-1,4-diazepane]",< 100
7,"Cc1ccc(C(=O)N(C)C2CN(C(=O)N3CCCN(C4CCC4)CC3)C2)cn1 [Example 143, N-{1-[(4-cyclobutyl-1,4-diazepan-1-yl)carbonyl]azetidin-3-yl}-N,6-dimethylpyridine-3-carboxamide]",< 100
8,"O=C(N1CCCN(C2CCC2)CC1)N1CC(Oc2ccnc3ccccc23)C1 [Example 68, 4-({1-[(4-cyclobutyl-1,4-diazepan-1-yl)carbonyl]azetidin-3-yl}oxy)quinoline]",< 100
9,"O=C(N1CCCN(C2CCC2)CC1)N1CC(Oc2ccc(OC(F)(F)F)cc2)C1 [Example 88, 1-cyclobutyl-4-({3-[4-(trifluoromethoxy)phenoxy]azetidin-1-yl}carbonyl)-1,4-diazepane]",< 100
10,"O=C(N1CCCN(C2CCC2)CC1)N1CC(OCc2ccc(Cl)cc2)C1 [Example 97, 1-({3-[(4-chlorobenzyl)oxy]azetidin-1-yl}carbonyl)-4-cyclobutyl-1,4-diazepane]",< 100
11,"Cn1cc(-c2ccc(OC3CN(C(=O)N4CCCN(C5CCC5)CC4)C3)cc2)cn1 [Example 149, 1-cyclobutyl-4-({3-[4-(1-methyl-1H-pyrazol-4-yl)phenoxy]azetidin-1-yl}carbonyl)-1,4-diazepane]",< 100
12,"O=C(N1CCCN(C2CCC2)CC1)N1CC(Oc2ccc(Cn3cccn3)cc2)C1 [Example 16, 1-cyclobutyl-4-({3-[4-(1H-pyrazol-1-ylmethyl)phenoxy]azetidin-1-yl}carbonyl)-1,4-diazepane]",< 100
13,"O=C(N1CCCN(C2CCC2)CC1)N1CC(Oc2ccccc2)C1 [Example 15, 1-cyclobutyl-4-[(3-phenoxyazetidin-1-yl)carbonyl]-1,4-diazepane]",< 100
14,"CC(C)(O)c1cc(OC2CN(C(=O)N3CCCN(C4CCC4)CC3)C2)ccn1 [Example 53, 2-[4-({1-[(4-cyclobutyl-1,4-diazepan-1-yl)carbonyl]azetidin-3-yl}oxy)pyridin-2-yl]propan-2-ol]",< 100
15,O=C(N1CCCN(C2CCC2)CC1)N1CC(Oc2ncccc2Cl)C1 [Example 76],< 100
16,"O=C(N1CCN(C2CCC2)CC1)N1CC(Oc2ccc(F)cc2)C1 [Example 41, 1-cyclobutyl-4-{[3-(4-fluorophenoxy)azetidin-1-yl]carbonyl}piperazine]",< 100
17,"O=C(N1CCCN(C2CCC2)CC1)N1CC(Oc2cncc(F)c2)C1 [Example 45, 1-cyclobutyl-4-({3-[(5-fluoropyridin-3-yl)oxy]azetidin-1-yl}carbonyl)-1,4-diazepane]",< 100
18,"O=C(N1CCCN(C2CCC2)CC1)N1CC(Oc2ccc(CN3CCCCC3)cc2)C1 [Example 19, 1-cyclobutyl-4-({3-[4-(piperidin-1-ylmethyl)phenoxy]azetidin-1-yl}carbonyl)-1,4-diazepane]",< 100
19,"CC(C)(O)c1ccc(OC2CN(C(=O)N3CCCN(C4CCCC4)CC3)C2)cn1 [Example 159, 2-[5-({1-[(4-cyclopentyl-1,4-diazepan-1-yl)carbonyl]azetidin-3-yl}oxy)pyridin-2-yl]propan-2-ol]",500 to 5000
20,"O=C(N1CCCN(C2CCC2)CC1)N1CC(Oc2cncc(Cl)c2)C1 [Example 80, 1-({3-[(5-chloropyridin-3-yl)oxy]azetidin-1-yl}carbonyl)-4-cyclobutyl-1,4-diazepane]",< 100
21,"O=C(N1CCCN(C2CCC2)CC1)N1CC(COc2ccc(Cl)cc2)C1 [Example 135, 1-({3-[(4-chlorophenoxy)methyl]azetidin-1-yl}carbonyl)-4-cyclobutyl-1,4-diazepane]",< 100

row,Compound,IC50 [nM]
1,"O=C(N1CCCN(C2CCC2)CC1)N1CC(Oc2ccncc2F)C1 [Example 49, 1-cyclobutyl-4-({3-[(3-fluoropyridin-4-yl)oxy]azetidin-1-yl}carbonyl)-1,4-diazepane]",< 100
2,"CN(C(=O)C1CCCCC1)C1CN(C(=O)N2CCCN(C3CCC3)CC2)C1 [Example 144, N-{1-[(4-cyclobutyl-1,4-diazepan-1-yl)carbonyl]azetidin-3-yl}-N-methylcyclohexanecarboxamide]",< 100
3,"O=C([C@H]1C[C@@H](O)C1)N1CCCN(C2CCC2)CC1 [Example 101, cis-3-[(4-cyclobutyl-1,4-diazepan-1-yl)carbonyl]cyclobutanol]",100 to 500
4,"CN(C)C(=O)c1ccc(OC2CN(C(=O)N3CCCN(C4CCC4)CC3)C2)cc1 [Example 9, 4-({1-[(4-cyclobutyl-1,4-diazepan-1-yl)carbonyl]azetidin-3-yl}oxy)-N,N-dimethylbenzamide]",< 100
5,"NC(=O)c1ccc(OC2CN(C(=O)N3CCCN(C4CCC4)CC3)C2)cn1 [Example 4, 5-({1-[(4-cyclobutyl-1,4-diazepan-1-yl)carbonyl]azetidin-3-yl}oxy)pyridine-2-carboxamide]",< 100
6,"CC(C)(CO)c1ccc(OC2CN(C(=O)N3CCCN(C4CCC4)CC3)C2)cn1 [Example 156, 2-[5-({1-[(4-cyclobutyl-1,4-diazepan-1-yl)carbonyl]azetidin-3-yl}oxy)pyridin-2-yl]-2-methylpropan-1-ol]",< 100
7,"CC(C)(O)c1ccc(OC2CN(C(=O)N3CCCN(C4CCC4)CC3)C2)cn1 [Example 118, 2-[5-({1-[(4-cyclobutyl-1,4-diazepan-1-yl)carbonyl]azetidin-3-yl}oxy)pyridin-2-yl]propan-2-ol]",< 100
8,"COc1cncc(OC2CN(C(=O)N3CCCN(C4CCC4)CC3)C2)n1 [Example 66, 1-cyclobutyl-4-({3-[(6-methoxypyrazin-2-yl)oxy]azetidin-1-yl}carbonyl)-1,4-diazepane]",< 100
9,"CNC(=O)c1ccc(OC2CN(C(=O)N3CCCN(C4CCC4)CC3)C2)cn1 [Example 5, 5-({1-[(4-cyclobutyl-1,4-diazepan-1-yl)carbonyl]azetidin-3-yl}oxy)-N-methylpyridine-2-carboxamide]",< 100
10,"COc1ccc(OC2CN(C(=O)N3CCCN(C4CCC4)CC3)C2)cc1 [Example 86, 1-cyclobutyl-4-{[3-(4-methoxyphenoxy)azetidin-1-yl]carbonyl}-1,4-diazepane]",< 100
11,"NC1CN(C(=O)N2CCCN(C3CCC3)CC2)C1 [Example 109, 1-[(4-cyclobutyl-1,4-diazepan-1-yl)carbonyl]azetidin-3-amine]",< 100
12,"Cc1cnc(C)c(OC2CN(C(=O)N3CCCN(C4CCC4)CC3)C2)n1 [Example 64, 1-cyclobutyl-4-({3-[(3,6-dimethylpyrazin-2-yl)oxy]azetidin-1-yl}carbonyl)-1,4-diazepane]",< 100
13,"CN(C)C(=O)c1ccc(OC2CN(C(=O)N3CCCN(C4CCC4)CC3)C2)cn1 [Example 6, 5-({1-[(4-cyclobutyl-1,4-diazepan-1-yl)carbonyl]azetidin-3-yl}oxy)-N,N-dimethylpyridine-2-carboxamide]",< 100
14,"O=C(N1CCN(C2CCC2)CC1)N1CC(Oc2ccccc2)C1 [Example 38, 1-cyclobutyl-4-[(3-phenoxyazetidin-1-yl)carbonyl]piperazine]",< 100
15,"COc1nccc(OC2CN(C(=O)N3CCCN(C4CCC4)CC3)C2)n1 [Example 52, 1-cyclobutyl-4-({3-[(2-methoxypyrimidin-4-yl)oxy]azetidin-1-yl}carbonyl)-1,4-diazepane]",< 100
16,"CCN(CC)C(=O)c1ccc(OC2CN(C(=O)N3CCCN(C4CCC4)CC3)C2)cn1 [Example 7, 5-({1-[(4-cyclobutyl-1,4-diazepan-1-yl)carbonyl]azetidin-3-yl}oxy)-N,N-diethylpyridine-2-carboxamide]",< 100
17,"Cc1nccc(OC2CN(C(=O)N3CCCN(C4CCC4)CC3)C2)n1 [Example 65, 1-cyclobutyl-4-({3-[(2-methylpyrimidin-4-yl)oxy]azetidin-1-yl}carbonyl)-1,4-diazepane]",< 100
18,"CNC(=O)c1ccc(OC2CN(C(=O)N3CCCN(C4CCC4)CC3)C2)cc1F [Example 47, 4-({1-[(4-cyclobutyl-1,4-diazepan-1-yl)carbonyl]azetidin-3-yl}oxy)-2-fluoro-N-methylbenzamide]",< 100
19,"O=C(C1CN(C(=O)N2CCCN(C3CCC3)CC2)C1)N1CCOCC1 [Example 125, 1-cyclobutyl-4-{[3-(morpholin-4-ylcarbonyl)azetidin-1-yl]carbonyl}-1,4-diazepane]",< 100
20,"O=C(C1CN(C(=O)N2CCCN(C3CCC3)CC2)C1)N1CCCCC1 [Example 124, 1-cyclobutyl-4-{[3-(piperidin-1-ylcarbonyl)azetidin-1-yl]carbonyl}-1,4-diazepane]",< 100
